US20260284166A1, “NOVEL TUMOR ANTIGENS FOR MELANOMA AND USES THEREOF” (UNIVERSITÉ DE MONTRÉAL, priority 2023, published 2026)
Entries after “also recorded” stand apart in the source; their conditions may differ.

Tested on: CD8+ T cells from healthy donor PBMCs
Experiment: Functional expansion of specific T cells (FEST) assay
Format: cell-based, human
Settings: in vitro stimulation of healthy donor T cells with 1 μg/mL peptide, harvested day 20; TCR Vβ CDR3 sequencing of CD8+ cells
Source text: aeTSA selection for Immunogenicity assay. Melanoma aeTSAs to be tested in T cell-based immunogenicity assays were selected based on the following criteria: 1) complete loss of expression (RPHM) on-therapy in at least one responder from the Riaz et al.^8 cohort capable to present the respective aeTSAs (at least one HLA allele with rank elution <2% in NetMHCpan4.1b^5), 2) elevated mean expression in TCGA-SKCM, 3) the HLA allotype presenting the aeTSA (HLA-A*02:01 or HLA-B*68:01 shared by the melanoma samples and PBMCs donors), 4) the aeTSA biotype (25% canonical, 75% non-canonical), 5) novel MAP status.
T cells were cultured as previously described^9, with minor modifications. Briefly, on day 0, thawed PBMCs from D36 (Miltenyi Biotec) were T cell-enriched using the Human Pan T cell isolation kit (Miltenyi Biotec). T cells were resuspended at 2×10^6/mL in AIM V media supplemented with 50 μg/mL gentamicin (ThermoFisher Scientific) and 1% HEPES. The T cell-negative fraction was irradiated at 30 Gγ, washed, and resuspended at 2×10^6/mL in AIM V media supplemented with 50 μg/mL gentamicin and 1% HEPES. 2.5 ml per well of both T cells and irradiated T cell-depleted cells were added to a 12-well plate, along with each peptide (GLS Biochem) (1 μg/mL final concentration) or without peptide. Cells were cultured for 10 days at 37° C., 5% CO2. On day 3 and 7, half the culture media was replaced with fresh culture media containing 100 IU/mL IL-2, 50 ng/mL IL-7, and 50 ng/mL IL-15 (day 3) and 200 IU/mL IL-2, 50 ng/mL IL-7, and 50 ng/mL IL-15 (day 7). On day 10, thawed PBMCs from the same donor were used to generate a new batch of T cell-depleted cells. These cells were irradiated at 30 Gγ and loaded with […] of relevant peptide or without peptide during 2 h at 37° C. These cells were washed and added to cultures at a 1:1 T cell:non-T cell ratio. […] On day 20, cells were harvested to perform FEST assays.
For FEST assays, CD8^+ cells were further isolated using the Human CD8^+ T Cell Isolation Kit (Miltenyi Biotec). […]

Sequence: AAAGVSSTK [SEQ ID NO: 73]
- Amino acid sequences of the CDR3 of the TCRβ chain of the clonotypes expanded: CASSPTNTYEQYF; also recorded: CASHPAGADMNTEAFF; also recorded: CASSLAGRETQYF; also recorded: CASSVWGEPYNEQFF; also recorded: CASSRTDSYEQYF; also recorded: CASSLQGANGYTF

Sequence: GVDDLVFRR [SEQ ID NO: 64]
- Amino acid sequences of the CDR3 of the TCRβ chain of the clonotypes expanded: CASSPDPEGGEQYF; also recorded: CASSLQGHGYTF; also recorded: CASNVARTGGDISGDYEQYF; also recorded: CASSLGLAGSYEQYF; also recorded: CASSDSSYNSPLHF

Sequence: HTLPALSRR [SEQ ID NO: 66]
- Amino acid sequences of the CDR3 of the TCRβ chain of the clonotypes expanded: CASSFQGLNTEAFF (SEQ ID NO: 1103); also recorded: CASSPGQGNEKLFF (SEQ ID NO: 1104); also recorded: CASSLGSGYEQYF (SEQ ID NO: 1105); also recorded: CASSLGLYNEQFF (SEQ ID NO: 1106); also recorded: CASSPGTDYNEQFF (SEQ ID NO: 1107); also recorded: CATRPGAIRGYTF (SEQ ID NO: 1108); also recorded: CASSLIGGADTEAFF (SEQ ID NO: 1109)
